Reference: article PMC5418449, “Characterisation of CCT271850, a selective, oral and potent MPS1 inhibitor, used to directly measure in vivo MPS1 inhibition vs therapeutic efficacy” (British Journal of Cancer, 2017)

Legend:
Design in all cases: MTT antiproliferation assay, absorbance at 570 nm, human cancer cell line panel
Settings in all cases: 3-day MTT; inhibitor; read-out: Table S1. IC50 of CCT271850 determined by MTT and clonogenic assays (CA). / All cell lines were tested at least 2 times. / 3-day MTT
015B = tested on: 015B
Experimental: (§1) Cell lines were obtained from the American Type Culture Collection and grown in their recommended culture medium, supplemented with 10% FBS at 37 °C in 5% CO2. In-house authentication of cell lines by SNP profiling was carried out and cultured cells were passaged for less than 6 months before replacement from early-passage frozen stocks. Cells were regularly screened for Mycoplasma, using a PCR-based assay (VenorGem; Minerva Biolabs, Berlin, Germany). Transfections were carried out at ∼80% confluency with the plasmids indicated, using Lipofectamine LTX (15338030, Life Technologies, Carlsbad, CA, USA) according to the manufacturer's instructions. Cell proliferation assays were carried out by colorimetric MTT method (Sigma, St Louis, MO, USA) as described elsewhere ([Mosmann, 1983]). Briefly, cells were plated in 96-well plates at 2000–5000 cells per well (depending on the cell line) followed by treatment with two-fold dilutions of 0–25 μM drug for 72 h. Absorbance was measured at 570 nm with the Wallac VICTOR2 1420 Multilabel Counter (PerkinElmer, Waltham, MA, USA). To evaluate CCT271850 antiproliferation effects in a large panel of human cancer cell lines, 91 cell lines were treated for 72 h and 14 days at different compound concentrations in growth inhibition assays. The growth inhibition values as measured by IC50 are summarised in Table 2 and Supplementary Table S1. […] Cell lines from colon and head and neck cancers were among the most sensitive.

A2780 = tested on: A2780
Experimental: as §1

PATU-8988S = tested on: PATU-8988S
Experimental: as §1

011A = tested on: 011A
Experimental: as §1

KGN = tested on: KGN
Experimental: as §1

Capan-1 = tested on: Capan-1
Experimental: as §1

PANC-1 = tested on: PANC-1
Experimental: as §1

OAW42 = tested on: OAW42
Experimental: as §1

EF021 = tested on: EF021
Experimental: as §1

CaoV3 = tested on: CaoV3
Experimental: as §1

HN15 = tested on: HN15
Experimental: as §1

BxPC-3 = tested on: BxPC-3
Experimental: as §1

TOV21G = tested on: TOV21G
Experimental: as §1

CAL27 = tested on: CAL27
Experimental: as §1

Hs766T = tested on: Hs766T
Experimental: as §1

O13 = tested on: O13
Experimental: as §1

005B = tested on: 005B
Experimental: as §1

Kuramochi = tested on: Kuramochi
Experimental: as §1

SKOV3 = tested on: SKOV3
Experimental: as §1

011B = tested on: 011B
Experimental: as §1

TYK-Nu = tested on: TYK-Nu
Experimental: as §1

OVCAR3 = tested on: OVCAR3
Experimental: as §1

OVCAR4 = tested on: OVCAR4
Experimental: as §1

PJ41 = tested on: PJ41
Experimental: as §1

005A = tested on: 005A
Experimental: as §1

PT45 = tested on: PT45
Experimental: as §1

Miapaca-2 = tested on: Miapaca-2
Experimental: as §1

IC50 (A2780): 137 nM | IC50 (PANC-1): 1380 nM | IC50 (BxPC-3): 525 nM | IC50 (SKOV3): > 100000 nM | IC50 (OVCAR3): > 100000 nM | IC50 (OVCAR4): 4950 nM | IC50 (Miapaca-2): 245 nM
Structure (SMILES): COc1cc(-c2cnn(C)c2)ccc1Nc1ncc2ccnc(N[C@@H](C)C(C)(C)C)c2n1 [34h, CCT271850]
IC50 (015B): 350 nM | IC50 (PATU-8988S): 2020 nM | IC50 (011A): 1620 nM | IC50 (KGN): 3120 nM | IC50 (Capan-1): 2050 nM | IC50 (OAW42): 880 nM | IC50 (EF021): 751 nM | IC50 (CaoV3): 360 nM | IC50 (HN15): 1740 nM | IC50 (TOV21G): 753 nM | IC50 (CAL27): 227 nM | IC50 (Hs766T): 1900 nM | IC50 (O13): 1260 nM | IC50 (005B): 440 nM | IC50 (Kuramochi): 4860 nM | IC50 (011B): 2220 nM | IC50 (TYK-Nu): 990 nM | IC50 (PJ41): 520 nM | IC50 (005A): 940 nM | IC50 (PT45): 960 nM
